# Where two headings read alike, the source gives them in different places.
# What was measured:
# mushroom tyrosinase [1] = assay: Mushroom tyrosinase inhibitory assay (L-tyrosine or L-DOPA as substrate); type: biochemical; conditions: for IC50: mean ± SEM of triplicate experiments; for tyrosinase inhibitory activity toward L-DOPA (in words): at any of the tested concentrations
# Protocol: The reaction mixtures were keep warm at 37 °C for 20 min. The absorbance of the mixture at 492 nm was measured using a microplate reader. The tyrosinase inhibitory activity (%) was calculated as (1 − Abssample/Abscontrol) × 100%.
# B16F10 melanoma cells [2] = assay: Cell viability, EZ-Cytox assay; type: cell-based, murine; conditions: concentrations up to 100 μM, 48 h
# Protocol: (§1) Murine melanoma B16F10 cells were purchased from the Korean Cell Line Bank (Seoul, Korea). The cells were cultured in DMEM containing 10% FBS and 1% streptomycin, and then incubated at 37 °C with 5% CO2. The melanoma cells were plated at 95% confluency for all the experiments.
# Cell viability was assessed with the EZ-Cytox assay kit (Daeillab Service, Seoul, Korea) as previously described. In brief, B16F10 cells were seeded in 96-well plates (Corning, NY, USA) at a density of 1 × 10^4 cells/well for 24 h. The cells were fed fresh, serum-free DMEM that contained different concentrations (up to 100 μM) of 1c, and incubated for 24 h or 48 h. Then, 10 μL EZ-Cytox solution was added to each well and the cells were incubated for 2–4 h. The absorbance of cells in the absence of treatment was regarded as 100% cell survival. […] Thus, CC50 value of 1c were calculated by regression analysis.
# mushroom tyrosinase [3] = assay: Enzyme kinetic analysis in mushroom tyrosinase inhibition (Lineweaver-Burk and Dixon plots); type: biochemical; conditions: for Ki: Dixon plot; for Inhibition type: Lineweaver-Burk plot
# Protocol: In order to estimate the kinetic mechanism, two kinetic methods using Lineweaver-Burk and Dixon plots were used. Using Lineweaver-Burk double reciprocal plots [a plot of 1/enzyme velocity (1/V) vs. 1/substrate concentration (1/[S])], the type of inhibition was determined using various concentrations of L-tyrosine (0.5, 1 and 2 mM) and L-DOPA (0.5, 1, and 2 mM), as substrates, in the absence and presence of various concentrations of 1c (3.2–80 nM; for L-tyrosine, 0.4–10 μM; for L-DOPA). […] The concentrations of 1c were as follows: 3.2–80 nM; for L-tyrosine, 0.4–10 μM; for L-DOPA. The enzymatic procedures comprised of the formerly described tyrosinase test methods. The inhibition constant (Ki) was resolute using Dixon plots.
# [4] = tested on: intracellular tyrosinase in B16F10 melanoma cells; assay: Cellular tyrosinase activity assay in α-MSH and IBMX-induced B16F10 melanoma cells (L-DOPA oxidation); type: cell-based, murine; conditions: α-MSH (5 μM) and IBMX (200 μM), 48 h, α-MSH and IBMX alone 310.39%
# Protocol: as §1
# Intracellular tyrosinase inhibitory activity assay was achieved by measuring the rate of oxidation of L-DOPA [44]. Cells at a density of 1 × 10^5 cells/well were plated in 6-well plates (Nunc, Denmark) and incubated overnight. […] The cells were washed with PBS and lysed in a solution containing 100 µL of 50 mM phosphate buffer (pH 6.5), 0.1 mM phenylmethylsulfonylfluoride (PMSF), and 1% Triton X-100. The cells lysates were employed in a deep freezer (−80 °C) for 1 h. After defrosting the cell lysates, the cellular extracts were purified by centrifugation at 12,000 rpm for 30 min at 4 °C. A total of 80 µL of supernatant and 20 µL of L-DOPA (2 mg/mL) were added to a 96-well plate, and the absorbance at a wavelength of 492 nm was measured every 10 min during 1 h using an ELISA plate reader (TECAN, Salzburg, Austria). Total protein content was determined using BCA protein assay reagent (Thermo Scientific, Rockford, IL, USA).
# B16F10 melanoma cells [5] = assay: Melanin contents in α-MSH and IBMX-induced B16F10 melanoma cells; type: cell-based, murine; conditions: α-MSH (5 μM) and IBMX (200 μM), 48 h, α-MSH and IBMX alone 171.30%
# Protocol: as §1
# Cellular melanin content was determined as described previously. Cells were seeded in six-well culture plates (Nunc, Denmark) at 2 × 10^5 cells/well for 24 h. […] Cells were washed twice with PBS. After centrifugation, cell pellets were disrupted in 100 μL of 1N NaOH, and incubated at 60 °C for 1 h and mixed to solubilize the melanin. Absorbance at 405 nm was compared with a standard curve for synthetic melanin (TECAN, Salzburg, Austria).
# [6] = substrate L-DOPA, read-out: IC50 (μM), L-DOPA as substrate (diphenolase / dopa oxidase)
# [7] = substrate L-tyrosine, read-out: IC50 (μM), L-tyrosine as substrate (monophenolase / tyrosine hydroxylase)
SMILES,IC50 (mushroom tyrosinase [1]; [6]),IC50 (mushroom tyrosinase [1]; [7]),melting point,tyrosinase inhibitory activity toward L-DOPA (in words) (mushroom tyrosinase [1]; substrate L-DOPA),other results
"O=C(/C=C/c1ccc(O)cc1)c1cccs1 [1a, (E)-3-(4-Hydroxyphenyl)-1-(thiophen-2-yl)prop-2-en-1-one]",60.1 ± 7.85 µM,46.2 ± 0.55 µM,–,–,–
"COc1cc(/C=C/C(=O)c2cccs2)cc(OC)c1O [1f, (E)-3-(4-Hydroxy-3,5-dimethoxyphenyl)-1-(thiophen-2-yl)prop-2-en-1-one]",> 200 µM,77.9 ± 8.74 µM,143.6 to 147.3 °C,did not inhibit tyrosinase activity,–
"O=C(/C=C/c1cc(Br)c(O)c(Br)c1)c1cccs1 [1h, (E)-3-(3,5-Dibromo-4-hydroxyphenyl)-1-(thiophen-2-yl)prop-2-en-1-one]",> 200 µM,–,269.3 to 272 °C,did not inhibit tyrosinase activity,tyrosinase inhibitory activity toward L-tyrosine (in words) (mushroom tyrosinase [1]; substrate L-tyrosine): inactive
"O=c1cc(CO)occ1O [Kojic acid, kojic acid, reference compound]",–,–,–,–,intracellular tyrosinase activity ([4]; 10 μM): 225.54%; melanin contents (B16F10 melanoma cells [5]; 10 μM): 118.19%

# The next lines start with results.
IC50 (mushroom tyrosinase [1]; [6]),IC50 (mushroom tyrosinase [1]; [7]),melting point,tyrosinase inhibitory activity toward L-DOPA (in words) (mushroom tyrosinase [1]; substrate L-DOPA),SMILES,other results
103 ± 8.47 µM,75.7 ± 2.46 µM,182.5 to 185.7 °C,–,"O=C(/C=C/c1ccc(O)c(O)c1)c1cccs1 [1b, (E)-3-(3,4-Dihydroxyphenyl)-1-(thiophen-2-yl)prop-2-en-1-one]",–
0.93 ± 0.22 µM,–,–,–,"O=C(/C=C/c1ccc(O)cc1O)c1cccs1 [1c, (E)-3-(2,4-Dihydroxyphenyl)-1-(thiophen-2-yl)prop-2-en-1-one]",cytotoxicity (cell viability) (B16F10 melanoma cells [2]): did not show any cytotoxicity; Ki (mushroom tyrosinase [3]; substrate L-DOPA): 1.76 µM; Inhibition type (mushroom tyrosinase [3]; substrate L-DOPA): competitive inhibition; Ki (mushroom tyrosinase [3]; substrate L-tyrosine): 0.00501 µM; Inhibition type (mushroom tyrosinase [3]; substrate L-tyrosine): competitive inhibition; intracellular tyrosinase activity ([4]; 0.04 μM): 225.78%; intracellular tyrosinase activity ([4]; 0.2 μM): 157.79%; intracellular tyrosinase activity ([4]; 1 μM): 132.71%; melanin contents (B16F10 melanoma cells [5]; 0.04 μM): 107.29%; melanin contents (B16F10 melanoma cells [5]; 0.2 μM): 98.15%; melanin contents (B16F10 melanoma cells [5]; 1 μM): 88.09%
> 200 µM,98.8 ± 2.11 µM,132.8 to 135.2 °C,did not inhibit tyrosinase activity,"COc1cc(/C=C/C(=O)c2cccs2)ccc1O [1d, (E)-3-(4-Hydroxy-3-methoxyphenyl)-1-(thiophen-2-yl)prop-2-en-1-one]",–
28.7 ± 1.98 µM,17.4 ± 1.81 µM,–,–,"COc1ccc(/C=C/C(=O)c2cccs2)cc1O [1e, (E)-3-(3-Hydroxy-4-methoxyphenyl)-1-(thiophen-2-yl)prop-2-en-1-one]",–
112 ± 14.3 µM,–,195.2 to 199.6 °C,–,"O=C(/C=C/c1ccc(O)c(Br)c1)c1cccs1 [1g, (E)-3-(3-Bromo-4-hydroxyphenyl)-1-(thiophen-2-yl)prop-2-en-1-one]",tyrosinase inhibitory activity toward L-tyrosine (in words) (mushroom tyrosinase [1]; substrate L-tyrosine): inactive

# From PMC6222382, “A Potent Tyrosinase Inhibitor, (E)-3-(2,4-Dihydroxyphenyl)-1-(thiophen-2-yl)prop-2-en-1-one, with Anti-Melanogenesis Properties in α-MSH and IBMX-Induced B16F10 Melanoma Cells” (Molecules : A Journal of Synthetic Chemistry and Natural …, 2018)
